From patent publication US9683019B2, “Cyclic polypeptides for the treatment of heart failure” (priority 2013, dated 2017)
Where a SMILES comes first, the peptide text is derived from it. Bridges are numbered along the chain shown (N, C = ends). [ ]: non-standard residue; d: D form. NMeF = CN[C@@H](Cc1ccccc1)C(=O)O; pGlu = O=C1CC[C@@H](C(=O)O)N1; Nle = CCCC[C@H](N)C(=O)O

Columns and labels:
[1] = Surrogate Activity-Based Plasma Stability Assay; type: in vitro ADME; conditions: rat
Excerpt: Surrogate Activity-Based Plasma Stability Assay:
2) Calculate slope of value above and […]

[2] = Plasma Stability Assay (LC-MS); type: in vitro ADME; conditions: male, Sprague-Dawley, heparinized rat plasma, 37° C., read-out: Plasma stability t½
Description: Plasma Stability Assay: Materials: Working solution: 1 mg/mL test article is prepared in Milli-Q water Extraction solution: Methanol:Acetonitrile:Water (1:1:1) with 0.1% Formic Acid and 400 ng/mL Glyburide. Plasma: Male Sprague-Dawley rat plasma (with sodium heparin), purchased from Bioreclamation LLC (Liverpool, N.Y.). Test article was prepared in one of the following biological matrices: heparinized rat plasma, heparinized rat whole blood or lung homogenate. […] Lung homogenate samples were prepared by diluting lung homogenate to 1 mg/ml protein concentration with phosphate buffered saline (PBS), followed by addition of 5 uL Working solution to 995 uL diluted lung homogenate. The samples were incubated at 37° C. with gentle shaking (65˜75 rpm) in a water bath incubator. […] Afterwards, a pipetting device (Tecan Temo) was used to transfer the supernatants to another plate and add 50 uL of water to all samples. The plate was vortexed prior to LC-MS analysis. […] The samples are incubated at 37° C. with gentle shaking (65˜75 rpm) in a water bath incubator. […] The reaction mixture is incubated at 37° C. for 1 hour. After completion of reaction, protein precipitation is performed using 300 uL of acetonitrile. […] Afterwards, a pipetting device (Tecan Temo) is used to transfer 125 uL supernatants to another plate and adds 50 uL of water to all samples. […]

hAPJ = target: T1, hAPJ (Homo sapiens, UniProt P35414); assay: hAPJ Calcium Flux Assay; type: cell-based; conditions: Chem-5 APJ stable cells, calcium flux stimulation; read-out: hAPJ Ca2+ Flux EC50
T1 sequence (P35414 1-380): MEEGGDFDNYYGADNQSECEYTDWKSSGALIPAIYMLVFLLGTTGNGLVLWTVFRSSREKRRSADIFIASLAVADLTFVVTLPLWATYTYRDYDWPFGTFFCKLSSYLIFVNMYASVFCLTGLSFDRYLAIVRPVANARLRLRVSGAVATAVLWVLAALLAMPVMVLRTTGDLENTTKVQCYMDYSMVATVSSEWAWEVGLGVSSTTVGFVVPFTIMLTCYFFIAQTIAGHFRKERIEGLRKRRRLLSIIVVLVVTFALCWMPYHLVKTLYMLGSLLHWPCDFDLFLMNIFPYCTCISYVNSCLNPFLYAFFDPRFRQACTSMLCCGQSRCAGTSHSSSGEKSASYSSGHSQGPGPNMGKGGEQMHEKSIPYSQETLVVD
Description: Chem-5 APJ stable cells (Millipore # HTS068C) were plated in 384-well format with 10,000 cells/well in 25 ul growth media, then grown 24 hours in a 37° C. tissue culture incubator. One hour before the assay, 25 ul/well FLIPR Calcium 4 dye (Molecular Devices R8142) with 2.5 mM probenecid was added, and cells were incubated one hour in a 37° C. tissue culture incubator. Peptides were solubilized in HBSS, HEPES & 0.1% BSA buffer, and serially-diluted 10-fold, from 50 uM to 5 pM, in triplicate. FLIPR Tetra was used to add peptide to the cells with dye (1:5, for final peptide concentrations ranging from 10 uM to 1 pM). FLIPR dye inside the cells emitted fluorescence after binding to calcium, while fluorescence from outside the cells was masked. […] Readings were done for 3 minutes total, beginning 10 seconds before the peptide addition. Maximum-minimum values were calculated and plotted for each peptide concentration, and GraphPad prism software was used to calculate EC50 values at the curve inflection points, for calcium flux stimulation by peptides.

EC50 (hAPJ) | SMILES | Surrogate Activity based Plasma stability t½ [1] | half-life [1] | half-life [2]
– | CCCC[C@@H](NC(=O)[C@@H]1CCCN1C(=O)CNC(=O)[C@H](CCCCN)NC(=O)[C@@H]1CSSC[C@H](NC(=O)[C@@H]2CCCN2C(=O)[C@H](CCCNC(=N)N)NC(=O)[C@@H]2CCC(=O)N2)C(=O)N[C@@H](CC(C)C)C(=O)N[C@@H](CO)C(=O)N1)C(=O)NCCc1ccccc1 [Example 32, pE-R-P-C*-L-S-C*-K-G-P-(D-Nle)-NH(Phenethyl)] | >16.67 h | > 16.7 h | 6.28 h
4.2 nM | CCCC[C@H](NC(=O)[C@@H]1CCCN1C(=O)CNC(=O)[C@H](CCCCN)NC(=O)[C@@H]1CSSC[C@H](NC(=O)[C@@H]2CCCN2C(=O)[C@H](CCCNC(=N)N)NC(=O)[C@@H]2CCC(=O)N2)C(=O)N[C@@H](CC(C)C)C(=O)N[C@@H](CO)C(=O)N1)C(=O)N1CCC[C@H]1C(=O)N(C)[C@@H](Cc1ccccc1)C(=O)O [Example 29, pE-R-P-C*-L-S-C*-K-G-P-Nle-P-(N-Me)F-OH] ([pGlu]RPCLSCKGP[Nle]P[NMeF]-OH; disulfide 4-7) | – | 11.8 h | –
